pIC50: −log10 of the molar value. Starred links: 1 amine or outer side, 2 acyl side, 3 side chain; linkers in the order of their positions; H or OH if unused. Positions of bridges follow the written chain, without caps; N, C: chain ends. Non-standard residues stand in square brackets, D forms with d. Residues, ends and D or L forms follow the SMILES beside them. Groups on a side chain read outwards from the residue. *: point of attachment. CH3O(CH2CH2O)11CH2CH2CO = COCCOCCOCCOCCOCCOCCOCCOCCOCCOCCOCCOCCC(=O)*; PEG12 = NCCOCCOCCOCCOCCOCCOCCOCCOCCOCCOCCOCCOCCC(=O)O; Trp(7-Me) = Cc1cccc2c(C[C@H](N)C(=O)O)c[nH]c12; C18 diacid = O=C(O)CCCCCCCCCCCCCCCCC(=O)*; γGlu = O=C(O)[C@H](CCC(=O)[*:2])N[*:1]; 2Nal = N[C@@H](Cc1ccc2ccccc2c1)C(=O)O; Palmitoyl = CCCCCCCCCCCCCCCC(=O)*; 3Pal = N[C@@H](Cc1cccnc1)C(=O)O; αMeL = CC(C)C[C@](C)(N)C(=O)O; PEG4 = NCCOCCOCCOCCOCCC(=O)O; Pen = CC(C)(S)[C@H](N)C(=O)O; αMeK = C[C@](N)(CCCCN)C(=O)O; X3 = COCCOCCOCCOCCC(=O)*; Thp = NC1(C(=O)O)CCOCC1; Sar = CNCC(=O)O
Biological target: IL-23R-expressing DB cells (Homo sapiens, UniProt Q5VWK5)
Sequence (Q5VWK5 24-629 limits assumed): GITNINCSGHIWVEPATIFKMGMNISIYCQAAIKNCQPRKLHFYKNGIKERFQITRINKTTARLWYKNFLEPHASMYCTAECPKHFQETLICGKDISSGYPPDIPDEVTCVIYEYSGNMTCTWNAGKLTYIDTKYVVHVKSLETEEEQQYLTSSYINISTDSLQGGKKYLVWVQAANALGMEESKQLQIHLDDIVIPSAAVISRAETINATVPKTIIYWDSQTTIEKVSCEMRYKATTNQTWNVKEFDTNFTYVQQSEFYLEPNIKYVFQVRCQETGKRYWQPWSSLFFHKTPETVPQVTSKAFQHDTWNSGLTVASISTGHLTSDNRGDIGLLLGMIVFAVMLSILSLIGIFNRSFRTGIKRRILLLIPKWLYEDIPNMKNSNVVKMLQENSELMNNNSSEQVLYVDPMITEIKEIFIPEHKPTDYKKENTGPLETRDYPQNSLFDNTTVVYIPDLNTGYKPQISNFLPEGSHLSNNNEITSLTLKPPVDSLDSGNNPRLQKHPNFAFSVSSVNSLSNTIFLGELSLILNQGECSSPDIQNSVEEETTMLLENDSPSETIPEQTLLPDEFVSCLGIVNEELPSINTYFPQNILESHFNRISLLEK
Test: DB Cells IL23R pSTAT3 Cell Assay
Type: cell-based
Details: pSTAT3 (HTRF) in IL-23R-expressing DB cells, 0.5 nM IL-23, 30 minutes; Table 6 'IL-23 Cell Data'
Description: IL-23 is believed to play a central role in supporting and maintaining Th17 differentiation in vivo. This process is thought to be mediated primarily through the Signal Transducer and Activator of Transcription 3 (STAT3), with phosphorylation of STAT3 (to yield pSTAT3) leading to upregulation of RORC and pro-inflammatory IL-17. […] DB cells (ATCC #CRL-2289), cultured in RPMI-1640 medium (Thermo Scientific #11875093) supplemented with 10% FBS, were added at 5 X 10E5 cells/well and incubated for 30 minutes at 37° C. in a 5% CO2 humidified incubator. Changes in phospho-STAT3 levels in the cell lysates were detected using the Cisbio HTRF pSTAT3 (Tyr705) Cellular Assay Kit (Cisbio #62AT3PEH), according to manufacturer's Two Plate Assay protocol. Where not shown or it is marked as “0”, data was not yet determined.

SMILES | pIC50
COc1ccc(C[C@H](NC(=O)[C@H]2NC(=O)[C@H](CCCCNC(=O)CCOCCOCCOCCOCCNC(=O)CCCCCCCCCCCCCCCCC(=O)O)NC(=O)[C@H](Cc3c[nH]c4c(C)cccc34)NC(=O)[C@H]([C@@H](C)O)NC(=O)[C@H](CC(C)C)NC(=O)[C@@H](NC(C)=O)C(C)(C)SSC2(C)C)C(=O)N[C@@H](Cc2ccc3ccccc3c2)C(=O)NC2(C(=O)N[C@@H](CC(C)C)C(=O)N[C@@H](CC(C)C)C(=O)N[C@@H](Cc3cccnc3)C(=O)N(C)CC(N)=O)CCOCC2)cc1 [Example 262, Ac-[Pen]-L-T-[Trp(7-Me)]-[Lys(PEG4_C18_Diacid)]-[Pen]-[Phe(4-OMe)]-[2Nal]-[THP]-L-L-[3Pal]-[Sarc]-NH2] (Ac-[Pen]LT[Trp(7-Me)]K([PEG4-C18 diacid])[Pen]Y(Me)[2Nal][Thp]LL[3Pal][Sar]-NH2; disulfide 1-6) | < 8.00
CCCCCCCCCCCCCCCC(=O)N[C@@H](CCC(=O)NCCOCCOCCOCCOCCOCCOCCOCCOCCOCCOCCOCCOCCC(=O)NCCCC[C@](C)(NC(=O)[C@H](Cc1ccc2ccccc2c1)NC(=O)[C@H](Cc1ccc(OC)cc1)NC(=O)[C@H]1NC(=O)[C@H](CCCCNC(C)=O)NC(=O)[C@H](Cc2c[nH]c3c(C)cccc23)NC(=O)[C@H]([C@@H](C)O)NC(=O)[C@H](C)NC(=O)[C@@H](NC(C)=O)C(C)(C)SSC1(C)C)C(=O)N[C@@H](CCCCNC(C)=O)C(=O)N[C@@H](CC(N)=O)C(=O)N[C@@H](Cc1cccnc1)C(=O)N(C)CC(N)=O)C(=O)O [Example 226, Ac-[Pen]-A-T-[Trp(7-Me)]-[Lys(Ac)]-[Pen]-[Phe(4-OMe)]-[2Nal]-[aMeLys(PEG12_IsoGlu_Palm)]-[Lys(Ac)]-N-[3Pal]-[Sarc]-NH2] (Ac-[Pen]AT[Trp(7-Me)]K(Ac)[Pen]Y(Me)[2Nal][αMeK]([PEG12-γGlu-Palmitoyl])K(Ac)N[3Pal][Sar]-NH2; disulfide 1-6) | 9.20
CCCCCCCCCCCCCCCC(=O)N[C@@H](CCC(=O)NCCOCCOCCOCCOCCOCCOCCOCCOCCOCCOCCOCCOCCC(=O)NCCCC[C@](C)(NC(=O)[C@H](Cc1ccc2ccccc2c1)NC(=O)[C@H](Cc1ccc(OC)cc1)NC(=O)[C@H]1NC(=O)[C@H](CCCCNC(C)=O)NC(=O)[C@H](Cc2c[nH]c3c(C)cccc23)NC(=O)[C@H]([C@@H](C)O)NC(=O)[C@H](CC(N)=O)NC(=O)[C@@H](NC(C)=O)C(C)(C)SSC1(C)C)C(=O)N[C@@H](C)C(=O)N[C@@H](C)C(=O)N[C@@H](Cc1cccnc1)C(=O)N(C)CC(N)=O)C(=O)O [Example 225, Ac-[Pen]-N-T-[Trp(7-Me)]-[Lys(Ac)]-[Pen]-[Phe(4-OMe)]-[2Nal]-[aMeLys(PEG12_IsoGlu_Palm)]-A-A-[3Pal]-[Sarc]-NH2] | 9.09
CCCCCCCCCCCCCCCC(=O)N[C@@H](CCC(=O)NCCOCCOCCOCCOCCOCCOCCOCCOCCOCCOCCOCCOCCC(=O)NCCCC[C@H](NC(=O)C1(NC(=O)[C@H](Cc2ccc3ccccc3c2)NC(=O)[C@H](Cc2ccc(OC)cc2)NC(=O)[C@H]2NC(=O)[C@H](CCCCNC(C)=O)NC(=O)[C@H](Cc3c[nH]c4c(C)cccc34)NC(=O)[C@H]([C@@H](C)O)NC(=O)[C@H](CC(C)C)NC(=O)[C@@H](NC(C)=O)C(C)(C)SSC2(C)C)CCOCC1)C(=O)N[C@@H](CC(C)C)C(=O)N[C@@H](Cc1cccnc1)C(=O)N(C)CC(N)=O)C(=O)O [Example 243, Ac-[Pen]-L-T-[Trp(7-Me)]-[Lys(Ac)]-[Pen]-[Phe(4-OMe)]-[2Nal]-[THP]-[Lys(PEG12_IsoGlu_Palm)]-L-[3Pal]-[Sarc]-NH2] (Ac-[Pen]LT[Trp(7-Me)]K(Ac)[Pen]Y(Me)[2Nal][Thp]K([PEG12-γGlu-Palmitoyl])L[3Pal][Sar]-NH2; disulfide 1-6) | 8.37
COc1ccc(C[C@H](NC(=O)[C@H]2NC(=O)[C@H](CCCCNC(=O)CCOCCOCCOCCOCCOCCOCCOCCOCCOCCOCCOCCOCCNC(=O)CC[C@H](NC(=O)CCCCCCCCCCCCCCCCC(=O)O)C(=O)O)NC(=O)[C@H](Cc3c[nH]c4c(C)cccc34)NC(=O)[C@H]([C@@H](C)O)NC(=O)[C@H](CC(C)C)NC(=O)[C@@H](NC(C)=O)C(C)(C)SSC2(C)C)C(=O)N[C@@H](Cc2ccc3ccccc3c2)C(=O)NC2(C(=O)N[C@@H](CC(C)C)C(=O)N[C@@H](CC(C)C)C(=O)N[C@@H](Cc3cccnc3)C(=O)N(C)CC(N)=O)CCOCC2)cc1 [Example 268, Ac-[Pen]-L-T-[Trp(7-Me)]-[Lys(PEG12_IsoGlu_C18_Diacid)]-[Pen]-[Phe(4-OMe)]-[2Nal]-[THP]-L-L-[3Pal]-[Sarc]-NH2] (Ac-[Pen]LT[Trp(7-Me)]K([PEG12-γGlu-C18 diacid])[Pen]Y(Me)[2Nal][Thp]LL[3Pal][Sar]-NH2; disulfide 1-6) | < 8.00
COc1ccc(C[C@H](NC(=O)[C@H]2NC(=O)[C@H](CCCCNC(=O)CC[C@H](NC(=O)CCCCCCCCCCCCCCCCC(=O)O)C(=O)O)NC(=O)[C@H](Cc3c[nH]c4c(C)cccc34)NC(=O)[C@H]([C@@H](C)O)NC(=O)[C@H](CC(C)C)NC(=O)[C@@H](NC(C)=O)C(C)(C)SSC2(C)C)C(=O)N[C@@H](Cc2ccc3ccccc3c2)C(=O)NC2(C(=O)N[C@@H](CCCCNC(C)=O)C(=O)N[C@@H](CC(C)C)C(=O)N[C@@H](Cc3cccnc3)C(=O)N(C)CC(N)=O)CCOCC2)cc1 [Example 271, Ac-[Pen]-L-T-[Trp(7-Me)]-[Lys(IsoGlu_C18_Diacid)]-[Pen]-[Phe(4-OMe)]-[2Nal]-[THP]-[Lys(Ac)]-L-[3Pal]-[Sarc]-NH2] (Ac-[Pen]LT[Trp(7-Me)]K([γGlu-C18 diacid])[Pen]Y(Me)[2Nal][Thp]K(Ac)L[3Pal][Sar]-NH2; disulfide 1-6) | < 8.00
COCCOCCOCCOCCOCCOCCOCCOCCOCCOCCOCCOCCC(=O)N[C@@H]1C(=O)N[C@@H](CC(N)=O)C(=O)N[C@@H]([C@@H](C)O)C(=O)N[C@@H](Cc2c[nH]c3c(C)cccc23)C(=O)N[C@@H](CCCCNC(C)=O)C(=O)N[C@H](C(=O)N[C@@H](Cc2ccccc2)C(=O)N[C@@H](Cc2ccc3ccccc3c2)C(=O)N[C@@](C)(CC(C)C)C(=O)N[C@@H](CC(C)C)C(=O)N[C@@H](CC(N)=O)C(=O)N[C@@H](Cc2cccnc2)C(=O)N(C)CC(N)=O)C(C)(C)SSC1(C)C [Example 207, [PEG12_OMe]-[Pen]-N-T-[Trp(7-Me)]-[Lys(Ac)]-[Pen]-F-[2Nal]-[aMeLeu]-L-N-[3Pal]-[Sarc]-NH2] ({CH3O(CH2CH2O)11CH2CH2CO}-[Pen]NT[Trp(7-Me)]K(Ac)[Pen]F[2Nal][αMeL]LN[3Pal][Sar]-NH2; disulfide 1-6) | 9.20

These reach a higher pIC50. Values come first.

pIC50 | SMILES
9.89 | COCCOCCOCCOCCC(=O)N[C@@H]1C(=O)N[C@@H](CC(C)C)C(=O)N[C@@H]([C@@H](C)O)C(=O)N[C@@H](Cc2c[nH]c3c(C)cccc23)C(=O)N[C@@H](CCCCNC(C)=O)C(=O)N[C@H](C(=O)N[C@@H](Cc2ccccc2)C(=O)N[C@@H](Cc2ccc3ccccc3c2)C(=O)N[C@@](C)(CC(C)C)C(=O)N[C@@H](CC(C)C)C(=O)N[C@@H](CC(N)=O)C(=O)N[C@@H](Cc2cccnc2)C(=O)N(C)CC(N)=O)C(C)(C)SSC1(C)C [Example 213, [PEG4_OMe]-[Pen]-L-T-[Trp(7-Me)]-[Lys(Ac)]-[Pen]-F-[2Nal]-[aMeLeu]-L-N-[3Pal]-[Sarc]-NH2] (X3-[Pen]LT[Trp(7-Me)]K(Ac)[Pen]F[2Nal][αMeL]LN[3Pal][Sar]-NH2; disulfide 1-6)
10.15 | COCCOCCOCCOCCOCCOCCOCCOCCOCCOCCOCCOCCC(=O)N[C@@H]1C(=O)N[C@@H](CC(C)C)C(=O)N[C@@H]([C@@H](C)O)C(=O)N[C@@H](Cc2c[nH]c3c(C)cccc23)C(=O)N[C@@H](CCCCNC(C)=O)C(=O)N[C@H](C(=O)N[C@@H](Cc2ccccc2)C(=O)N[C@@H](Cc2ccc3ccccc3c2)C(=O)N[C@@](C)(CC(C)C)C(=O)N[C@@H](CC(C)C)C(=O)N[C@@H](CC(N)=O)C(=O)N[C@@H](Cc2cccnc2)C(=O)N(C)CC(N)=O)C(C)(C)SSC1(C)C [Example 209, [PEG12_OMe]-[Pen]-L-T-[Trp(7-Me)]-[Lys(Ac)]-[Pen]-F-[2Nal]-[aMeLeu]-L-N-[3Pal]-[Sarc]-NH2] ({CH3O(CH2CH2O)11CH2CH2CO}-[Pen]LT[Trp(7-Me)]K(Ac)[Pen]F[2Nal][αMeL]LN[3Pal][Sar]-NH2; disulfide 1-6)
10.21 | COCCOCCOCCOCCC(=O)N[C@@H]1C(=O)N[C@@H](CC(N)=O)C(=O)N[C@@H]([C@@H](C)O)C(=O)N[C@@H](Cc2c[nH]c3c(C)cccc23)C(=O)N[C@@H](CCCCNC(C)=O)C(=O)N[C@H](C(=O)N[C@@H](Cc2ccccc2)C(=O)N[C@@H](Cc2ccc3ccccc3c2)C(=O)N[C@@](C)(CC(C)C)C(=O)N[C@@H](CC(C)C)C(=O)N[C@@H](CC(N)=O)C(=O)N[C@@H](Cc2cccnc2)C(=O)N(C)CC(N)=O)C(C)(C)SSC1(C)C [Example 211, [PEG4_OMe]-[Pen]-N-T-[Trp(7-Me)]-[Lys(Ac)]-[Pen]-F-[2Nal]-[aMeLeu]-L-N-[3Pal]-[Sarc]-NH2] (X3-[Pen]NT[Trp(7-Me)]K(Ac)[Pen]F[2Nal][αMeL]LN[3Pal][Sar]-NH2; disulfide 1-6)

Source: patent US12478617B2, “Lipidated peptide inhibitors of interleukin-23 receptor” (JANSSEN BIOTECH, INC., priority 2021, dated 2025)
